Non-standard residues stand in square brackets, D forms with d. Residues, ends and D or L forms follow the SMILES beside them.
How the values were obtained:
[1] = tested on: spontaneous breast cancers; test: Spontaneous breast cancer FVB/N MMTV-PyVT mice
[2] = molecular target: FOXM1:LIN9 or FOXM1: B-MYB (Homo sapiens, UniProt Q08050); test: Co-IP in 231-Flag-FOXM1-Ind cells; details: 10, 20 µM for 6 h, dose-dependent
[3] = molecular target: truncated FOXM1 recombinant proteins tagged by GST (Homo sapiens, UniProt Q08050); test: Pulldown of GST-tagged truncated FOXM1 recombinant proteins; details: Biotin-M1-21 20 µM, recombinant protein 100 µg; Ponceau S
[4] = molecular target: truncated FOXM1 recombinant proteins tagged by GST (Homo sapiens, UniProt Q08050); test: as above; details: Biotin-M1-21 20 µM, recombinant protein 100 µg; Ponceau S; remark: listed apart in the source
[5] = molecular target: truncated FOXM1 recombinant proteins tagged by GST (Homo sapiens, UniProt Q08050); test: as above; details: Biotin-M1-21 20 µM, recombinant protein 100 µg; Ponceau S; remark: listed apart in the source
[6] = tested on: − 1.4 kb promoter of PLK1; test: Dual luciferase reporter, CHR-containing promoter; details: HEK-293T, PLK1 pro(-1.4 kb)-Luc with pCMV-FOXM1; 5, 10, 20 µM for 24 h; n = 3
4T1-Luc-GFP cells = test: 4T1-Luc-GFP metastasis tracing in wild-type BALB/c mice; details: 15 or 30 mg/kg intraperitoneal every two days
full-length FOXM1 = molecular target: T1, full-length FOXM1 (Homo sapiens, UniProt Q08050); test: Biotin-peptide Pulldown with Streptavidin Magnetic Beads; assay type: binding; details: biotin-labeled peptide, cell lysates (500 µg) with endogenous or exogenous FOXM1; Western Blotting
T1 sequence (Q08050 703-763 limits assumed): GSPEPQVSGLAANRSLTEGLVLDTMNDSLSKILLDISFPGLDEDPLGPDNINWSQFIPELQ
Protocol: SDS-PAGE gel electrophoresis and Coomassie brilliant blue staining were performed to measure peptide stability. […] Cells were collected at different post-treatment time points (0, 1, 2, 4, 8, 16, 24, 36, 48 h). […] D The docking of peptide P22 (106–126) to the FOXM1 C-terminus (PDB ID 6OSW) was created by Rosetta FlexPepDock and PyMOL. Left, the interface of peptide-protein interaction, the peptide was shown in cyan, and the C-terminus of FOXM1 was shown according to its electrostatic potential. Right, hydrogen bonds are formed by residues at the interface of peptide and protein interaction. […] Streptavidin magnetic beads were added to lysates to pull down the biotin-peptides/protein complexes. […] M1-21mut was used as the control.

FOXM1/DNA complex = FOXM1/DNA complex (Homo sapiens, UniProt Q08050); test: Electrophoretic Mobility Shift Assays (EMSAs); assay type: biochemical; details: recombinant FOXM1 2 µM, FAM-labeled DNA probe 50 nM, M1-21 0.5, 1, 2 µM
Sequence of FOXM1/DNA complex (Q08050 1-748 isoform Q08050-2, one chain of several): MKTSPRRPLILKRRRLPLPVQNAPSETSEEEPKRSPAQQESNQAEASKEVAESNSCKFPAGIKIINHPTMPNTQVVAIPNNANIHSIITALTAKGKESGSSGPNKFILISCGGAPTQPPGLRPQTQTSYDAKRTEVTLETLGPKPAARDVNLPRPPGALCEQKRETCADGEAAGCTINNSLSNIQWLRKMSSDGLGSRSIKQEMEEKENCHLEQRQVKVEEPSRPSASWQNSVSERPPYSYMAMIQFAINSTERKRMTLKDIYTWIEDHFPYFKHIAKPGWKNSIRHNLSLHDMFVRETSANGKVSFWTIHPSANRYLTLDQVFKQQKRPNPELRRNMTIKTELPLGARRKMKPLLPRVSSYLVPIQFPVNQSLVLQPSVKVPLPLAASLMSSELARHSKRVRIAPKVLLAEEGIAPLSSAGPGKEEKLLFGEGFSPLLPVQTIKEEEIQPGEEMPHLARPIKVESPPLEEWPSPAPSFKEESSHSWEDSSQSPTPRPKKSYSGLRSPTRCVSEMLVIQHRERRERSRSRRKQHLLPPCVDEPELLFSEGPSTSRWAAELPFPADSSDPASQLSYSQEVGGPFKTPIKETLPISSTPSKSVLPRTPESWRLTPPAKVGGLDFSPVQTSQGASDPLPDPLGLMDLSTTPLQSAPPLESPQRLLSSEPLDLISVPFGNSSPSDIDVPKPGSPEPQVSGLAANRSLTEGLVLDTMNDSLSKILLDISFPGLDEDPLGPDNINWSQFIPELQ
Protocol: A FAM-labeled DNA probe (50 nM) was mixed with recombinant FOXM1 protein (2 µM) for EMSAs. […] The specificity of FOXM1/DNA complex formation was shown using 100× unlabeled DNA probes (cold probes, 5000 nM). Reactions were resolved in 4% native polyacrylamide gel electrophoresis in 0.5×TBE and visualized with a Kodak 4000 MM Imaging System (EX: 465 nm, EM: 535 nm). B The docking of P22 to FOXM1 DNA Binding domain (DBD, PDB ID 3G73) was created by Rosetta FlexPepDock and PyMOL. Left, the interface of peptide-protein interaction, peptide was shown in cyan and FOXM1 DBD was shown according to its electrostatic potential. Right, hydrogen bonds were formed by residues (blue from peptide and black from FOXM1 DBD) at the interface of peptide and protein interaction.
The double-strand DNA (dsDNA) probe was synthesized by Sangon Co., Ltd. (Shanghai, China). Protein (2 µM) was incubated with FAM-labeled dsDNA probe (50 nM) in binding buffer (20 mM Tris-Cl, 50 mM KCl, 0.5 mM EDTA, 0.2 mM DTT, 10% glycerol, pH 7.6) for 30 min on ice. […] The reactions were resolved in 4% native polyacrylamide gel electrophoresis in 0.5×TBE and visualized with Kodak 4000 MM Imaging System (Kodak, USA) (EX: 465 nm, EM: 535 nm for FAM). Sequence information is available in Supplementary Table S3.

MCF-10A cells = details: 0-50 µM, 72 h, trypan blue, Fig. S11
MDA-MB-231 cells [7] = details: Biotin-M1-21 20 µM, 4 h, cytosol and nuclear protein samples, Western blotting
[8] = molecular target: T2, interaction between FOXM1 and PLK1 (Homo sapiens, UniProt Q08050); test: Co-IP in 231-Flag-FOXM1-Ind cells; assay type: cell-based; details: doxycycline 200 ng/mL 24 h, M1-21 10, 20 µM or TAT-106-126 20, 40, 80 µM for 6 h
T2 construct: expressed in transfected cells; host or cells: MDA-MB-231 stably infected with pLVX-TetOne-Flag-FOXM1b lentivirus (231-Flag-FOXM1-Ind), doxycycline-induced
T2 sequence (Q08050 1-748 isoform Q08050-2): as the sequence (Q08050 1-748 isoform Q08050-2, one chain of several) above
Source text: Number of repetitions = 3. […] Number of repetitions = 3. […] Number of repetitions = 3. […] GAPDH was used as a loading control.

[9] = In vivo imaging of distribution of ICG-labeled peptide; set-up: species or system mouse; details: ICG-labeled M1-21, 30 mg/kg tail vein, wild-type ICR/JCL mice; IVIS imaging 0.5-24 h
[10] = tested on: MDA-MB-231 engrafted tumors; test: MDA-MB-231 tumor-engrafted BALB/c nude mice
MDA-MB-231 cells [11] = test: mRNA and protein levels of marker and target genes (qPCR, Western blotting)
[12] = tested on: FOXM1-binding promoters (6xFOXM1 binding sequence-containing promoter, − 1.8 kb promoter of CDC25B); test: Dual luciferase reporter, FOXM1-binding promoters; details: HEK-293T, cotransfection with pCMV-FOXM1; M1-21 5, 10, 20 µM for 24 h; n = 3
[13] = 20 mg/kg intraperitoneal once daily for 28 days, Day 29
[14] = MDA-MB-231, 10 µM, 24 h, qPCR, Western blotting

Sequence of FOXM1:LIN9 or FOXM1: B-MYB (Q08050 1-748 isoform Q08050-2): as the sequence (Q08050 1-748 isoform Q08050-2, one chain of several) above

Compound: CC[C@@H](C)[C@@H](NC(=O)[C@@H](CC(C)C)NC(=O)[C@H](NC(=O)[C@@H](CO)NC(=O)[C@@H](CS)NC(=O)CNC(=O)CNC(=O)[C@@H](C)NC(=O)[C@H]1CCCN1C(=O)[C@H](NC(=O)[C@@H](CCC(N)=O)NC(=O)[C@H]1CCCN1C(=O)[C@H]1CCCN1C(=O)CNC(=O)[C@@H](CC(C)C)NC(=O)[C@@H](CCCNC(=N)N)NC(=O)[C@H]1CCCN1C(=O)[C@@H](CCC(N)=O)NC(=O)[C@H](NC(=O)[C@H](N)CCC(N)=O)[C@H](C)O)[C@H](C)O)[C@H](C)CC)C(=O)N[C@H](Cc1ccccc1)C(=O)N[C@H](CCCNC(=N)N)C(=O)N[C@H](CCCNC(=N)N)C(=O)N[C@H](CCCNC(=N)N)C(=O)N[C@H](CCC(N)=O)C(=O)N[C@H](CCCNC(=N)N)C(=O)N[C@H](CCCNC(=N)N)C(=O)N[C@H](CCCCN)C(=O)N[C@H](CCCCN)C(=O)N[C@H](CCCNC(=N)N)C(=O)NCC(=O)O [M1-21] (H-[dQ][dT][dQ][dP][dR][dL]G[dP][dP][dQ][dT][dP][dA]GG[dC][dS][dI][dL][dI][dF][dR][dR][dR][dQ][dR][dR][dK][dK][dR]G-OH; N-terminus and C-terminus assumed)
- mice with therapeutic benefit, of the seven treated [1, 13]: six mice had obvious therapeutic benefits and even one mouse was cancer-free
- weight of total cancer tissue from each mouse [1, 13]: inhibited cancer progression
- number of formed cancers ([1]; 20 mg/kg intraperitoneal once daily for 28 days, n = 7, versus PBS n = 4): dramatically decreased
- levels of KI-67 and CDC25B in cancer sections (immunostaining) ([1]; 20 mg/kg once daily for 28 days): dramatically down-regulated
- interaction of FOXM1:LIN9 or FOXM1: B-MYB (Co-IP) [2]: disrupted the interaction
- binding to GST-FOXM1_1-138 in Pulldown [3]: bound
- binding to GST-FOXM1_221-353 in Pulldown [4]: bound
- binding to GST-FOXM1_688-748 in Pulldown [5]: bound
- FOXM1-MuvB-mediated stimulation on the CHR-containing promoter (luciferase) [6]: abolished FOXM1-MuvB-mediated stimulation
- survival time of the animals (4T1-Luc-GFP cells; Mantel-Cox, log rank test): significantly prolonged
- metastasis of 4T1-Luc-GFP cells (in vivo luciferase imaging) (4T1-Luc-GFP cells; n = 6 per group, Day 1, 7, 17, organs Day 21): prevented metastasis
- binding to full-length FOXM1 in Pulldown (full-length FOXM1): bound
- DNA binding ability of FOXM1 (EMSA) (FOXM1/DNA complex): did not disturb
- inhibition of normal breast epithelial cells, in words (MCF-10A cells): did not inhibit
- distribution after entering cells (MDA-MB-231 cells [7]): distributed in cytoplasm and nucleus
- interaction between FOXM1 and PLK1 (Co-IP) [8]: disrupted the interaction
- period of stay in the body (stability in mice) [9]: > 15 h
- size and weight of engrafted tumors at the end of the experiment ([10]; BALB/c nude mice, 30 mg/kg intraperitoneal once every two days, Day 19, n = 6): significantly decreased
- growth of engrafted tumors (tumor volume) ([10]; BALB/c nude mice, 30 mg/kg intraperitoneal once every two days, n = 6, versus PBS): growth inhibition of engrafted tumors
- levels of FOXM1, CDC25B and PLK1 in tumor samples ([10]; Western blotting of harvested cancer tissues, Fig. S12B): decreased levels
- levels of epithelial marker E-cadherin (MDA-MB-231 cells [11]; [14]): increased
- levels of mesenchymal markers Vimentin and N-cadherin (MDA-MB-231 cells [11]; [14]): decreased
- mRNA and protein levels of PCNA and Cyclin B1 (MDA-MB-231 cells [11]; MDA-MB-231, 20 µM for 24 h, versus M1-21mut): downregulated
- levels (mRNA or protein) of FOXM1 itself (MDA-MB-231 cells [11]; MDA-MB-231, 20 µM, and spontaneously developed cancer tissues, Fig. S21): decrease the levels
- mRNA and protein levels of CDC25B, PLK1 and Vimentin (MDA-MB-231 cells [11]; MDA-MB-231, 20 µM, qPCR 24 h, Western blotting 1.5-36 h): dramatically repressed the expression
- FOXM1-mediated stimulation on FOXM1-binding promoters (luciferase) [12]: abrogated FOXM1-mediated stimulation

Reference: paper PMC10286459 (Cell & Bioscience, 2023)
